According to ChEMBL document CHEMBL1146892, “Pyrrolidine bis-cyclic guanidines with antimicrobial activity against drug-resistant Gram-positive pathogens identified from a mixture-based combinatorial library” (2006):
≈ marks a conversion by molar mass, not a printed value.

What was measured:
Format in all cases: functional
[1] = test system: Staphylococcus aureus; experiment: Antibacterial activity against methicillin-resistant Staphylococcus aureus ATCC 33591
[2] = test system: Escherichia coli; experiment: Antibacterial activity against Escherichia coli ATCC 25922
[3] = test system: Enterococcus faecalis; experiment: Antibacterial activity against vancomycin-resistant Enterococcus faecalis ATCC 51299

| SMILES | MBC [1] | MIC [1] | MBC [2] | MIC [2] | MBC [3] | MIC [3] |
| --- | --- | --- | --- | --- | --- | --- |
| CCCC[C@@H]1CN([C@H](Cc2ccc3ccccc3c2)CN2CCCC2CN2C(N)=NC[C@@H]2C)C(=N)N1CCc1cc(C(F)(F)F)cc(C(F)(F)F)c1 (some centres not stated) | 2.5 µg/mL (≈ 3.43 µM) | < 2.5 µg/mL | > 10 µg/mL | > 10 µg/mL | > 10 µg/mL | < 2.5 µg/mL |
| CC(C)Cc1ccc(C(C)CN2C(=N)N([C@H](Cc3ccc4ccccc4c3)CN3CCCC3CN3C(N)=NC[C@@H]3C)C[C@@H]2CC2CCCCC2)cc1 (some centres not stated) | 2.5 µg/mL (≈ 3.55 µM) | 2.5 µg/mL (≈ 3.55 µM) | > 10 µg/mL | > 10 µg/mL | 2.5 µg/mL (≈ 3.55 µM) | > 10 µg/mL |
| CC(C)Cc1ccc(C(C)CN2C(=N)N([C@H](CC3CCCCC3)CN3CCCC3CN3C(N)=NC[C@@H]3Cc3ccccc3)C[C@@H]2CC2CCCCC2)cc1 (some centres not stated) | 2.5 µg/mL (≈ 3.4 µM) | < 2.5 µg/mL | > 10 µg/mL | > 10 µg/mL | > 10 µg/mL | < 2.5 µg/mL |
| C[C@H]1CN=C(N)N1CC1CCCN1C[C@H](CC1CCCCC1)N1C[C@H](CC2CCCCC2)N(CCc2cc(C(F)(F)F)cc(C(F)(F)F)c2)C1=N (some centres not stated) | < 2.5 µg/mL | < 2.5 µg/mL | > 10 µg/mL | > 10 µg/mL | > 10 µg/mL | < 2.5 µg/mL |
| N=C1N(CCc2cc(C(F)(F)F)cc(C(F)(F)F)c2)[C@@H](CC2CCCCC2)CN1[C@H](CC1CCCCC1)CN1CCCC1CN1C(N)=NC[C@@H]1Cc1ccccc1 (some centres not stated) | < 2.5 µg/mL | < 2.5 µg/mL | > 10 µg/mL | > 10 µg/mL | > 10 µg/mL | 2.5 µg/mL (≈ 3.12 µM) |
| CCCC[C@@H]1CN([C@H](CC2CCCCC2)CN2CCCC2CN2C(N)=NC[C@@H]2Cc2ccccc2)C(=N)N1CC(C)c1ccc(CC(C)C)cc1 (some centres not stated) | < 2.5 µg/mL | < 2.5 µg/mL | > 10 µg/mL | > 10 µg/mL | < 2.5 µg/mL | < 2.5 µg/mL |
| CCCC[C@@H]1CN([C@H](CC2CCCCC2)CN2CCCC2CN2C(N)=NC[C@@H]2Cc2ccccc2)C(=N)N1CCc1cc(C(F)(F)F)cc(C(F)(F)F)c1 (some centres not stated) | 2.5 µg/mL (≈ 3.28 µM) | < 2.5 µg/mL | 5 µg/mL (≈ 6.56 µM) | 5 µg/mL (≈ 6.56 µM) | < 2.5 µg/mL | < 2.5 µg/mL |
| C[C@H]1CN=C(N)N1CC1CCCN1C[C@@H](Cc1ccc2ccccc2c1)N1C[C@H](CC2CCCCC2)N(CCc2cc(C(F)(F)F)cc(C(F)(F)F)c2)C1=N (some centres not stated) | < 2.5 µg/mL | < 2.5 µg/mL | 5 µg/mL (≈ 6.49 µM) | 5 µg/mL (≈ 6.49 µM) | < 2.5 µg/mL | < 2.5 µg/mL |
| CC(C)Cc1ccc(C(C)CN2C(=N)N([C@@H](CC3CCCCC3)CN3CCCC3CN3C(N)=NC[C@@H]3C)C[C@@H]2CC2CCCCC2)cc1 (some centres not stated) | 2.5 µg/mL (≈ 3.79 µM) | < 2.5 µg/mL | 5 µg/mL (≈ 7.58 µM) | 5 µg/mL (≈ 7.58 µM) | > 10 µg/mL | < 2.5 µg/mL |
| CCCC[C@@H]1CN([C@@H](CC2CCCCC2)CN2CCCC2CN2C(N)=NC[C@@H]2Cc2ccccc2)C(=N)N1CC(C)c1ccc(CC(C)C)cc1 (some centres not stated) | 2.5 µg/mL (≈ 3.59 µM) | < 2.5 µg/mL | > 10 µg/mL | > 10 µg/mL | < 2.5 µg/mL | < 2.5 µg/mL |
| N=C1N(CCc2cc(C(F)(F)F)cc(C(F)(F)F)c2)[C@@H](CC2CCCCC2)CN1[C@H](Cc1ccc2ccccc2c1)CN1CCCC1CN1C(N)=NC[C@@H]1Cc1ccccc1 (some centres not stated) | < 2.5 µg/mL | < 2.5 µg/mL | > 10 µg/mL | > 10 µg/mL | < 2.5 µg/mL | < 2.5 µg/mL |
| CCCC[C@@H]1CN([C@H](Cc2ccc3ccccc3c2)CN2CCCC2CN2C(N)=NC[C@@H]2Cc2ccccc2)C(=N)N1CCc1cc(C(F)(F)F)cc(C(F)(F)F)c1 (some centres not stated) | < 2.5 µg/mL | < 2.5 µg/mL | > 10 µg/mL | > 10 µg/mL | > 10 µg/mL | < 2.5 µg/mL |
| CCCC[C@@H]1CN([C@H](Cc2ccc3ccccc3c2)CN2CCCC2CN2C(N)=NC[C@@H]2C)C(=N)N1CC(C)c1ccc(CC(C)C)cc1 (some centres not stated) | 2.5 µg/mL (≈ 3.77 µM) | 2.5 µg/mL (≈ 3.77 µM) | 5 µg/mL (≈ 7.53 µM) | 5 µg/mL (≈ 7.53 µM) | 2 µg/mL (≈ 3.01 µM) | < 2.5 µg/mL |
| CCCC[C@@H]1CN([C@@H](CC2CCCCC2)CN2CCCC2CN2C(N)=NC[C@@H]2C)C(=N)N1CC(C)c1ccc(CC(C)C)cc1 (some centres not stated) | 2.5 µg/mL (≈ 4.03 µM) | 2.5 µg/mL (≈ 4.03 µM) | > 10 µg/mL | > 10 µg/mL | > 10 µg/mL | < 2.5 µg/mL |
| CCCC[C@@H]1CN([C@@H](CC2CCCCC2)CN2CCCC2CN2C(N)=NC[C@@H]2C)C(=N)N1CCc1cc(C(F)(F)F)cc(C(F)(F)F)c1 (some centres not stated) | 2.5 µg/mL (≈ 3.65 µM) | 2.5 µg/mL (≈ 3.65 µM) | > 10 µg/mL | > 10 µg/mL | > 10 µg/mL | > 10 µg/mL |
| N=C1N(CCc2cc(C(F)(F)F)cc(C(F)(F)F)c2)[C@H](CC2CCCCC2)CN1[C@H](CC1CCCCC1)CN1CCCC1CN1C(N)=NC[C@@H]1Cc1ccccc1 (some centres not stated) | < 2.5 µg/mL | < 2.5 µg/mL | > 10 µg/mL | > 10 µg/mL | 2.5 µg/mL (≈ 3.12 µM) | 2.5 µg/mL (≈ 3.12 µM) |
| CCCC[C@@H]1CN([C@H](CC2CCCCC2)CN2CCCC2CN2C(N)=NC[C@@H]2C)C(=N)N1CCc1cc(C(F)(F)F)cc(C(F)(F)F)c1 (some centres not stated) | < 2.5 µg/mL | < 2.5 µg/mL | > 10 µg/mL | > 10 µg/mL | > 10 µg/mL | > 10 µg/mL |
